Assay results reported in EP4177246A1, “FUSED OXAZEPINES AS INHIBITORS OF PEROXIREDOXINS” (Centro Atlántico del Medicamento, SA, priority 2021, dated 2023).

Experiments:
K562 = experiment: MTT cell viability assay, K562 cells; format: cell-based; settings: Homo sapiens, 48 h drug exposure
Protocol: K562 [American Type Culture Collection (ATCC) reference number CCL-243]. This a human cancer cell line derived from the bone marrow of a person with CML.
(§1) Cell viability was assayed by measuring the mitochondrial reduction of the tetrazolium salt 3-(4,5-methyltiazol-2yl)-2,5diphenyl-tetrazolium bromide] (MTT) (Applichen; A2231,0010) [Mosmann T. J Immunol Methods. 1983 16;65(1-2):55-63 (ref. 36); Chuan Y-C et al 2010. Oncogene. 29 (10), 1531-1542 (ref. 37)]. Cells were seeded in 96-well plates in medium (either RPMI, DMEM or McCoys depending on the recommendations from the ATCC) supplemented with 10% FBS (Lonza Cat. N°: 14-502F), 2mM L-Glut (Lonza Cat. N°: BE17-605E) and 100U/ml PEST (Lonza Cat. N°: DE17-605E) at a cell density of 1000-5000 cells/well (96 well plate). Cells were seeded at a density according to their exponential growth phase (normally 1000 to 5000/well). The cells were cultured at 37 °C in the dark in air containing 5% CO2. After 24h either vehicle (0.05% DMSO) or drug were added to culture medium at the indicated concentrations (10 to 0,01microM). After another 48 h, MTT (0.3 mg/ml) was added to cells, followed by incubation for 2-4h at 37 °C in the dark. The medium was then removed and the precipitated formazan was solubilized by the addition of DMSO (200 µL).
(§2) The optical density was measured at 595 nm with the iMark Microplate Reader (BioRad, USA). Data was expressed as percent growth above the level in controls and the results in figures were plotted as means ± SEM of each test point from 3 replicates.
(§3) Statistical analysis. The concentration of drug that provokes 50% reduction of cell viability (IC50) was determined by using non-linear regression analysis and data were fitted to a log concentration vs normalized response curve in GraphPad software v5 (San Diego, CA).

HEL 92.1.7 = experiment: MTT cell viability assay, HEL cells; format: cell-based; settings: Homo sapiens, 48 h drug exposure
Protocol: HEL 92.1.7 [American Type Culture Collection (ATCC) reference number TIB-180]. This a human cancer cell line derived from the bone marrow of a person with erythroleukemia, which is a form of AML.
as §1, §2, §3

MDA-MB-231 = experiment: MTT cell viability assay, MDA-MB-231 cells; format: cell-based, human; settings: 48 h drug exposure
Protocol: MDA-MB-231 [American Type Culture Collection (ATCC) reference number HTB-26]. This a human breast cancer cell line derived from a metastatic site from a person.
as §1, §2, §3

| Structure (SMILES) | IC50 (HEL 92.1.7) [µM] | IC50 (MDA-MB-231; Homo sapiens) [µM] | other results |
| --- | --- | --- | --- |
| CCOC(=O)c1ccc2c(c1)CN(c1ccccc1)C1=C(O2)C(=O)c2c(O)ccc(O)c2C1=O [Compound 64] | 5.89 | – | IC50 (K562): 1.3 µM |
| NS(=O)(=O)c1ccc(N2Cc3ccccc3OC3=C2C(=O)c2c(cccc2[N+](=O)[O-])C3=O)cc1 [Compound 80] | – | 6.6 | – |
| CC(=O)Oc1ccc(OC(C)=O)c2c1C(=O)C1=C(C2=O)N(c2cccc(C#N)c2)Cc2ccccc2O1 [Compound 82, 12-(3-cyanophenyl)-6,11-dioxo-6,11,12,13-tetrahydrobenzo[f]naphtho[2,3-b][1,4] oxazepine-7,10-diyl diacetate] | 0.18 | 0.8 | – |
| O=C(O)c1ccc(N2Cc3ccccc3OC3=C2C(=O)c2ccccc2C3=O)cc1 [Compound 18] | – | – | IC50 (K562): > 10 µM |
| CC(=O)Oc1ccc(O)c2c1C(=O)C1=C(C2=O)N(c2ccccc2)Cc2ccccc2O1 [Compound 88] | 0.08 | – | – |
| N#Cc1ccc(N2Cc3ccccc3OC3=C2C(=O)c2c(cccc2[N+](=O)[O-])C3=O)cc1 [Compound 108] | – | 2.95 | – |
| CC(=O)Oc1ccc(OC(C)=O)c2c1C(=O)C1=C(C2=O)N(c2ccc(C(=O)O)cc2)Cc2ccccc2O1 [Compound 53] | 0.12 | 0.64 | – |
| CC(=O)Oc1ccc(OC(C)=O)c2c1C(=O)C1=C(C2=O)N(c2cccc(C(N)=O)c2)Cc2ccccc2O1 [Compound 92, 12-(3-carbamoylphenyl)-6,11-dioxo-6,11,12,13-tetrahydrobenzo[f]naphtho[2,3-b][1,4] oxazepine-7,10-diyl diacetate] | 0.12 | 0.15 | – |
| CC(=O)Oc1ccc(OC(C)=O)c2c1C(=O)C1=C(Oc3ccccc3C(c3ccc(N(C)C)nc3)N1)C2=O (centres unmarked) [Compound 95, 12-(6-(dimethylamino)pyridin-3-yl)-6,11-dioxo-6,11,12,13-tetrahydrobenzo[f]naphtha [2,3-b][1,4]oxazepine-7,10-diyl diacetate] | – | – | IC50 (MDA-MB-231): 0.15 µM |
| N#Cc1ccc(N2Cc3ccccc3OC3=C2C(=O)c2cccc([N+](=O)[O-])c2C3=O)cc1 [Compound 107] | – | 5.9 | – |
| CN1CCN(c2cc(O)c3c(c2O)C(=O)C2=C(C3=O)N(c3cccnc3)Cc3ccccc3O2)CC1 [Compound 33] | – | 0.72 | – |
| CN(C)CCOc1ccc(N2Cc3ccccc3OC3=C2C(=O)c2ccccc2C3=O)cn1 [Compound 72] | – | 0.72 | – |
| NC(=O)c1ccc(N2Cc3cc(Cl)ccc3OC3=C2C(=O)c2ccccc2C3=O)cc1 [Compound 21] | – | – | IC50 (K562): 1.12 µM |
| O=C1C2=C(C(=O)c3ccccc31)N(c1ccccn1)Cc1ccccc1O2 [Compound 5, 12-(pyridin-2-yl)-12,13-dihydrobenzo[f]naphtho[2,3-b][1,4]oxazepine-6,11-dione] | – | – | IC50 (K562): 0.43 µM |
| N#Cc1ccc(N2Cc3ccccc3OC3=C2C(=O)c2ccc(S(=O)(=O)N4CCOCC4)cc2C3=O)cc1 [Compound 70] | – | 7.1 | – |
| NS(=O)(=O)c1ccc(N2Cc3ccccc3OC3=C2C(=O)c2cccc([N+](=O)[O-])c2C3=O)cc1 [Compound 79] | – | 6.8 | – |
| NS(=O)(=O)c1ccc(N2Cc3cc(Cl)ccc3OC3=C2C(=O)c2ccccc2C3=O)cc1 [Compound 20] | – | – | IC50 (K562): 1.42 µM |
| O=C(O)c1ccc(N2Cc3ccccc3OC3=C2C(=O)c2c(O)ccc(O)c2C3=O)cc1 [Compound 57] | 0.13 | 1.17 | – |
| O=C1C2=C(C(=O)c3c1cccc3[N+](=O)[O-])N(c1cccnc1)Cc1ccccc1O2 [Compound 28] | – | 2 | – |
| N#Cc1ccc(N2Cc3ccccc3OC3=C2C(=O)c2c(O)cc(F)c(O)c2C3=O)cc1 [Compound 34] | – | 0.74 | – |
| COc1ccc(OC)c2c1C(=O)C1=C(C2=O)N(c2ccc(C#N)cc2)Cc2ccccc2O1 [Compound 30] | – | 0.89 | – |
| COc1ccc(N2Cc3ccccc3OC3=C2C(=O)c2c(O)ccc(O)c2C3=O)cc1 [Compound 46] | 0.11 | 0.25 | – |
| O=C1C2=C(C(=O)c3c(O)ccc(O)c31)N(c1ccc(Cl)nc1)Cc1ccccc1O2 [Compound 47, 12-(6-chloropyridin-3-yl)-7,10-dihydroxy-12,13-dihydrobenzo[f]naphtho[2,3-b][1,4]-oxazepine-6,11-dione] | – | 0.33 | – |

| Structure (SMILES) | IC50 (HEL 92.1.7) [µM] | IC50 (MDA-MB-231; Homo sapiens) [µM] | other results |
| --- | --- | --- | --- |
| O=C1C2=C(C(=O)c3c(O)ccc(O)c31)N(c1ccc(C(=O)N3CCOCC3)cc1)Cc1ccccc1O2 [Compound 58, 7,10-dihydroxy-12-(4-(morpholine-4-carbonyl)phenyl)-12,13-dihydrobenzo[f]naphtho[2,3-b][1,4]oxazepine-6,11-dione] | – | 0.5 | – |
| CN1CCN(c2cc(O)c3c(c2O)C(=O)C2=C(C3=O)N(c3ccc(C#N)cc3)Cc3ccccc3O2)CC1 [Compound 32] | – | 0.79 | – |
| NS(=O)(=O)c1ccc(N2Cc3ccccc3OC3=C2C(=O)c2ccc(S(=O)(=O)N4CCOCC4)cc2C3=O)cc1 [Compound 29] | – | > 10 | – |
| CC(=O)Oc1ccc(OC(C)=O)c2c1C(=O)C1=C(C2=O)N(c2ccc(C#N)cc2)Cc2ccccc2O1 [Compound 67, 12-(4-cyanophenyl)-6,11-dioxo-6,11,12,13-tetrahydrobenzo[f]naphtho[2,3-b][1,4] oxazepine-7,10-diyl diacetate] | 0.23 | 0.28 | – |
| CC(=O)Oc1ccc(OC(C)=O)c2c1C(=O)C1=C(C2=O)N(c2cccnc2)Cc2ccccc2O1 [Compound 60, 6,11-dioxo-12-(pyridin-3-yl)-6,11,12,13-tetrahydrobenzo[f]naphtho[2,3-b][1,4] oxazepine-7,10-diyl diacetate] | 0.08 | 0.41 | – |
| COc1cc(F)c(OC)c2c1C(=O)C1=C(Oc3ccccc3CN1c1ccc(C#N)cc1)C2=O [Compound 31] | – | 1.51 | – |
| O=C1C2=C(C(=O)c3ccc(S(=O)(=O)N4CCOCC4)cc31)N(c1cccnc1)Cc1ccccc1O2 [Compound 71] | – | 3.2 | – |
| COc1cccc2c1OC1=C(C(=O)c3ccccc3C1=O)N(c1ccc(C(N)=O)cc1)C2 [Compound 7] | – | – | IC50 (K562): 0.89 µM |
| COc1ccc2c(c1)OC1=C(C(=O)c3ccccc3C1=O)N(c1ccc(C#N)cc1)C2 [Compound 14] | – | – | IC50 (K562): 0.97 µM |
| CS(=O)(=O)Nc1cccc2c1C(=O)C1=C(C2=O)N(c2ccc(C#N)cc2)Cc2ccccc2O1 [Compound 78, N-(12-(4-cyanophenyl)-6,11-dioxo-6,11,12,13-tetrahydrobenzo[f]naphtha [2,3-b][1,4]oxazepin-7-yl)methanesulfonamide] | – | 6.9 | – |
| NCCN(CCO)c1ccc(N2Cc3ccccc3OC3=C2C(=O)c2c(O)ccc(O)c2C3=O)cn1 [Compound 63] | 0.09 | 0.25 | – |
| O=C(O)c1ccc2c(c1)CN(c1cccnc1)C1=C(O2)C(=O)c2c(O)ccc(O)c2C1=O [Compound 52] | > 10 | > 10 | – |
| O=C1C2=C(C(=O)c3ccccc31)N(c1ccc(Cl)cc1)Cc1ccccc1O2 [Compound 3] | – | – | IC50 (K562): 0.9 µM |
| CC(=O)Oc1ccc(O)c2c1C(=O)C1=C(Oc3ccccc3CN1c1cccnc1)C2=O [Compound 90] | 0.09 | – | – |
| CC(=O)Oc1ccc(OC(C)=O)c2c1C(=O)C1=C(Oc3ccccc3C(c3ccc(N4CCOCC4)nc3)N1)C2=O (centres unmarked) [Compound 96, 12-(6-morpholinopyridin-3-yl)-6,11-dioxo-6,11,12,13-tetrahydrobenzo[f]naphtha [2,3-b][1,4] oxazepine-7,10-diyl diacetate] | – | – | IC50 (MDA-MB-231): 0.13 µM |
| COc1cc(F)c(OC)c2c1C(=O)C1=C(Oc3ccccc3CN1c1cccnc1)C2=O [Compound 35] | – | 0.8 | – |
| N#Cc1ccc(N2Cc3ccccc3OC3=C2C(=O)c2ccc(Br)c(O)c2C3=O)cc1 [Compound 74, 4-(8-bromo-7-hydroxy-6,11-dioxo-6,11-dihydrobenzo[f]naphtho[2,3-b][1,4]oxazepin-12(13H)-yl)benzonitrile] | – | 1.8 | – |
| O=C(O)c1ccc2c(c1)CN(c1ccccc1)C1=C(O2)C(=O)c2c(O)ccc(O)c2C1=O [Compound 50] | 2.42 | – | – |
| O=C1C2=C(Oc3ccccc3CN2c2cccnc2)C(=O)c2c1cccc2[N+](=O)[O-] [Compound 27] | – | 1.73 | – |
| CC(=O)Oc1ccc(OC(C)=O)c2c1C(=O)C1=C(C2=O)N(c2ccccc2)Cc2ccccc2O1 [Compound 87, 6,11-dioxo-12-phenyl-6,11,12,13-tetrahydrobenzo[f]naphtho[2,3-b][1,4]oxazepine-7,10-diyl diacetate] | 0.08 | 0.15 | – |
| COC(=O)c1ccc(N2Cc3ccccc3OC3=C2C(=O)c2c(O)ccc(O)c2C3=O)cc1 [Compound 48] | 0.1 | 0.27 | – |
| CCOC(=O)c1ccc2c(c1)CN(c1cccnc1)C1=C(O2)C(=O)c2c(O)ccc(O)c2C1=O [Compound 51] | 3.31 | 0.6 | – |
| COc1ccc(OC)c2c1C(=O)C1=C(C2=O)N(c2cccc(C#N)c2)Cc2ccccc2O1 [Compound 94] | – | 1 | – |
